Columns and labels:
REC-1 xenograft = REC-1 xenograft model; assay type: in vivo, mice; conditions: BIDX28
Text: Typically, athymic nude mice (CD-1 nu/nu) or SCID mice are obtained at age 6-8 weeks from vendors and acclimated for a minimum 7-day period. The cancer cells are then implanted into the nude mice. Depending on the specific tumor type, tumors are typically detectable about two weeks following implantation. When tumor sizes reach ˜100-200 mm^3, the animals with appreciable tumor size and shape are randomly assigned into groups of 8 mice each, including one vehicle control group and treatment groups. Dosing varies depending on the purpose and length of each study, which typically proceeds for about 3-4 weeks. Tumor sizes and body weight are typically measured three times per week. In addition to the determination of tumor size changes, the last tumor measurement is used to generate the tumor size change ratio (T/C value), a standard metric developed by the National Cancer Institute for xenograft tumor evaluation. In most cases, % T/C values are calculated using the following formula: % T/C=100×ΔT/ΔC if ΔT>0. When tumor regression occurred (ΔT<0), however, the following formula is used: % T/T0=100×ΔT/T0. Values of <42% are considered significant.

WT BTK = WT BTK (Homo sapiens, UniProt Q06187); test: In vitro dialysis assay (irreversibility assay), WT BTK; assay type: biochemical; conditions: for Recovery after 24 h dialysis: 0.003 mM compound pre-incubated with 2 nM BTK for 2 hr, dialyzed 24 hr against buffer with 40 mM ATP, BTK activity vs non-dialyzed samples; for Conclusion (WT BTK): reversible or irreversible inhibition after 24 hr dialysis
Sequence of WT BTK (Q06187 whole entry): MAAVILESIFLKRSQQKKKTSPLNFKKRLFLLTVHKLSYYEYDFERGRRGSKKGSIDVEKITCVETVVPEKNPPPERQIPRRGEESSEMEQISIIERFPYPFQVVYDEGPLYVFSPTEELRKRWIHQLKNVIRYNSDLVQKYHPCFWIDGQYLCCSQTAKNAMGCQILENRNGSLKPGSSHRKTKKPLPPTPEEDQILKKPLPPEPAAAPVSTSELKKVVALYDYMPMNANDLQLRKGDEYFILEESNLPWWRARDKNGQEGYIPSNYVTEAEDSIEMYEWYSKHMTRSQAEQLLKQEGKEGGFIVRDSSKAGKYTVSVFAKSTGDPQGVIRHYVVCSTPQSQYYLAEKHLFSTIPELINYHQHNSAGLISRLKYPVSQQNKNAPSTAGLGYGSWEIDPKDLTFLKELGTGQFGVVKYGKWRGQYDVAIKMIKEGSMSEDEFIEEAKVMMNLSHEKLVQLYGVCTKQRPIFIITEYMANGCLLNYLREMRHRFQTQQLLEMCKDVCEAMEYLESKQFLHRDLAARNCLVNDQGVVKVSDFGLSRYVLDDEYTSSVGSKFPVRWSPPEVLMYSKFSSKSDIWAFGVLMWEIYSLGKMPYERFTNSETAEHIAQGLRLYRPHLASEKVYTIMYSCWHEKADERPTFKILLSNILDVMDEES
Method: The compound-enzyme complex was dialyzed against the same buffer supplemented with 40 mM ATP for 24 hr. Cumulative dialysis factor >160,000×. After dialysis, the BTK activity was measured in the presence 40 mM ATP and 1 mM substrate peptide and compared to that in non-dialyzed samples. Assay buffer: 100 mM HEPES, pH7.5; 0.1% BSA, 0.01% Triton-X 100; 5 mM MgCl2; 1 mM DTT.

Compound | Tumor volume (REC-1 xenograft; 10 mg/kg po, day 26 of the study) [mm^3] | Tumor volume (REC-1 xenograft; 50 mg/kg po, day 28 of the study) [mm^3] | Recovery after 24 h dialysis (WT BTK) [%] | Conclusion (WT BTK) (WT BTK)
CC#CC(=O)N1CCC[C@H]1c1nc(-c2ccc(C(=O)Nc3ccccn3)cc2)c2c(N)nccn12 [ACP-196, Acalabrutinib, reference compound] | 672 | 108 | – | –
C=CC(=O)Nc1cc(Nc2nc(-c3ccnc(N4CCn5c(cc6c5CC(C)(C)C6)C4=O)c3CO)cn(C)c2=O)ccc1N1CCC(N2CCN(C)CC2)CC1 [Example 21, N-(5-[[6-(2-[4,4-dimethyl-9-oxo-1,10-diazatricyclo[6.4.0.0^[2,6]]dodeca-2(6),7-dien-10-yl]-3-(hydroxymethyl)pyridin-4-yl)-4-methyl-3-oxopyrazin-2-yl]amino]-2-[4-(4-methylpiperazin-1-yl)piperidin-1-yl]phenyl)prop-2-enamide] | – | – | ~1 | Irreversible/covalent inhibition
C=CC(=O)Nc1cc(Nc2nc(-c3ccnc(N4CCn5c(cc6c5CC(C)(C)C6)C4=O)c3CO)cn(C)c2=O)ccc1N1CCN(C2CCC(F)(F)CC2)C[C@@H]1C [Example 23, N-[2-[(2S)-4-(4,4-difluorocyclohexyl)-2-methylpiperazin-1-yl]-5-[[6-(2-[4,4-dimethyl-9-oxo-1,10-diazatricyclo[6.4.0.0^[2,6]]dodeca-2(6),7-dien-10-yl]-3-(hydroxymethyl)pyridin-4-yl)-4-methyl-3-oxopyrazin-2-yl]amino]phenyl]prop-2-enamide] | – | – | ~1 | Irreversible/covalent inhibition
C=CC(=O)Nc1cc(Nc2nc(-c3ccnc(N4CCCn5c(cc6c5CC(C)(C)C6)C4=O)c3CO)cn(C)c2=O)ccc1N1CCN(C2COC2)C[C@@H]1C [Example 29, N-(5-[[6-(2-[4,4-dimethyl-9-oxo-1,10-diazatricyclo[6.5.0.0^[2,6]]trideca-2(6),7-dien-10-yl]-3-(hydroxymethyl)pyridin-4-yl)-4-methyl-3-oxopyrazin-2-yl]amino]-2-[(2S)-2-methyl-4-(oxetan-3-yl)piperazin-1-yl]phenyl)prop-2-enamide] | – | – | ~1 | Irreversible/covalent inhibition
C=CC(=O)Nc1cc(Nc2nc(-c3ccnc(N4CCc5c(sc6c5CCC6(C)C)C4=O)c3CO)cn(C)c2=O)ccc1N1CCN(C2COC2)C[C@@H]1C [Example 35, N-(5-[[6-(2-[5,5-dimethyl-9-oxo-7-thia-10-azatricyclo[6.4.0.0^[2,6]]dodeca-1(8),2(6)-dien-10-yl]-3-(hydroxymethyl)pyridin-4-yl)-4-methyl-3-oxopyrazin-2-yl]amino]-2-[(2S)-2-methyl-4-(oxetan-3-yl)piperazin-1-yl]phenyl)prop-2-enamide] | – | – | ~1 | Irreversible/covalent inhibition
C=CC(=O)Nc1cc(Nc2nc(-c3ccnc(N4CCc5c(sc6c5CCCC6)C4=O)c3CO)cn(C)c2=O)ccc1N1CCN(C2COC2)C[C@@H]1C [Example 36, N-[5-([6-[3-(hydroxymethyl)-2-[6-oxo-8-thia-5-azatricyclo[7.4.0.0 ^[2,7]]trideca-1(9),2(7)-dien-5-yl]pyridin-4-yl]-4-methyl-3-oxopyrazin-2-yl]amino)-2-[(2S)-2-methyl-4-(oxetan-3-yl)piperazin-1-yl]phenyl]prop-2-enamide] | – | – | ~1 | Irreversible/covalent inhibition
C=CC(=O)Nc1cc(Nc2nc(-c3ccnc(N4CCCn5c(cc6c5CC(C)(C)C6)C4=O)c3CO)cn(C)c2=O)ccc1N1CCN([C@H]2C[C@@H](C)O[C@@H](C)C2)C[C@@H]1C [Example 38, N-(5-[[6-(2-[4,4-dimethyl-9-oxo-1,10-diazatricyclo[6.5.0.0^[2,6]]trideca-2(6),7-dien-10-yl]-3-(hydroxymethyl)pyridin-4-yl)-4-methyl-3-oxopyrazin-2-yl]amino]-2-[(2S)-2-methyl-4-[(2R,4r,6S)-2,6-dimethyloxan-4-yl]piperazin-1-yl]phenyl)prop-2-enamide] | – | – | ~1 | Irreversible/covalent inhibition
C=CC(=O)Nc1cc(Nc2nc(-c3ccnc(N4CCn5c(cc6c5CC(C)(C)C6)C4=O)c3CO)cn(C)c2=O)ccc1N1CCN(C2CCOC2)C[C@@H]1C (stereo partly drawn) [Example 39, N-(5-[[6-(2-[4,4-dimethyl-9-oxo-1,10-diazatricyclo[6.4.0.0^[2,6]]dodeca-2(6),7-dien-10-yl]-3-(hydroxymethyl)pyridin-4-yl)-4-methyl-3-oxopyrazin-2-yl]amino]-2-[(2S)-2-methyl-4-(oxolan-3-yl)piperazin-1-yl]phenyl)prop-2-enamide] | – | – | ~1 | Irreversible/covalent inhibition
C=CC(=O)Nc1cc(Nc2nc(-c3ccnc(N4CCn5c(cc6c5CC(C)(C)C6)C4=O)c3C)cn(C)c2=O)ccc1N1CCN(C2CCOCC2)C[C@@H]1C [Example 40, N-(5-[[6-(2-[4,4-dimethyl-9-oxo-1,10-diazatricyclo[6.4.0.0^[2,6]]dodeca-2(6),7-dien-10-yl]-3-methylpyridin-4-yl)-4-methyl-3-oxopyrazin-2-yl]amino]-2-[(2S)-2-methyl-4-(oxan-4-yl)piperazin-1-yl]phenyl)prop-2-enamide] | – | – | ~1 | Irreversible/covalent inhibition
C=CC(=O)Nc1cc(Nc2nc(-c3ccnc(N4CCn5c(cc6c5CC(C)(C)C6)C4=O)c3CO)cn(C)c2=O)ccc1C1C(=O)N(C)CCN1C1COC1 (stereo not shown) [Example 41] | – | – | ~1 | Irreversible/covalent inhibition
C=CC(=O)Nc1cc(Nc2nc(-c3ccnc(N4CCn5c(cc6c5CC(C)(C)C6)C4=O)c3CO)cn(C)c2=O)ccc1C1CN(C2COC2)CC(=O)N1C (stereo not shown) [Example 42, N-(5-[[6-(2-[4,4-dimethyl-9-oxo-1,10-diazatricyclo[6.4.0.0^[2,6]]dodeca-2(6),7-dien-10-yl]-3-(hydroxymethyl)pyri-din-4-yl)-4-methyl-3-oxopyrazin-2-yl]amino]-2-[1-methyl-4-(oxetan-3-yl)-6-oxopiperazin-2-yl]phenyl)prop-2-enamide] | – | – | ~1 | Irreversible/covalent inhibition
C=CC(=O)Nc1cc(Nc2nc(-c3ccnc(N4CCn5c(cc6c5CC(C)(C)C6)C4=O)c3CO)cn(C)c2=O)ccc1C1CN(C)C(=O)CN1C1COC1 (stereo not shown) [Example 43] | – | – | – | Irreversible/covalent inhibition
C=CC(=O)Nc1cc(Nc2nc(-c3ccnc(N4CCc5c(sc6c5CCCC6)C4=O)c3C)cn(C)c2=O)ccc1N1CCN(C2COC2)C[C@@H]1C [Example 44, (S)—N-(2-(2-methyl-4-(oxetan-3-yl)piperazin-1-yl)-5-((4-methyl-6-(3-methyl-2-(1-oxo-3,4,5,6,7,8-hexahydrobenzo [4, 5]thieno[2,3-c]pyridin-2(1H)-yl)pyridin-4-yl)-3-oxo-3,4-dihydropyrazin-2-yl)amino)phenyl) acrylamide] | – | – | – | Irreversible/covalent inhibition
C=CC(=O)Nc1cc(Nc2nc(-c3ccnc(N4CCn5c(cc6c5CC(C)(C)C6)C4=O)c3C)cn(C)c2=O)ccc1N1CCN(C2COC2)CC1(C)C [Example 45, N-[2-[2,2-dimethyl-4-(oxetan-3-yl)piperazin-1-yl]-5-[[6-(2-[4,4-dimethyl-9-oxo-1,10-diazatricyclo[6.4.0.0^[2,6]]dodeca-2(6),7-dien-10-yl]-3-methylpyridin-4-yl)-4-methyl-3-oxopyrazin-2-yl]amino]phenyl]prop-2-enamide] | – | – | ~1 | Irreversible/covalent inhibition
C=CC(=O)Nc1cc(Nc2nc(-c3ccnc(N4CCn5c(cc6c5CC(C)(C)C6)C4=O)c3C)cn(C)c2=O)cnc1N1CCN(C2COC2)C[C@@H]1C [Example 46, N-(5-[[6-(2-[4,4-dimethyl-9-oxo-1,10-diazatricyclo[6.4.0.0^[2,6]]dodeca-2(6),7-dien-10-yl]-3-methylpyridin-4-yl)-4-methyl-3-oxopyrazin-2-yl]amino]-2-[(2S)-2-methyl-4-(oxetan-3-yl)piperazin-1-yl]pyridin-3-yl)prop-2-enamide] | – | – | ~1 | Irreversible/covalent inhibition
